Starred links: 1 amine or outer side, 2 acyl side, 3 side chain; linkers in the order of their positions; H or OH if unused. Positions of bridges follow the written chain, without caps; N, C: chain ends. Non-standard residues stand in square brackets, D forms with d. Residues, ends and D or L forms follow the SMILES beside them. *: point of attachment. Phe(3-OCH2COOH) = N[C@@H](Cc1cccc(OCC(=O)O)c1)C(=O)O; X15 = O=C([C@H](Cc1ccc(-c2ccccn2)cc1)N[*:1])[*:2]; Phe(4-CONH2) = NC(=O)c1ccc(C[C@H](N)C(=O)O)cc1; Phe(4-COOH) = N[C@@H](Cc1ccc(C(=O)O)cc1)C(=O)O; X14 = CCc1cccc(C[C@@H](C(=O)[*:2])N(C)[*:1])c1; Trp(7-aza) = N[C@@H](Cc1c[nH]c2ncccc12)C(=O)O; Tyr(Ph) = N[C@@H](Cc1ccc(Oc2ccccc2)cc1)C(=O)O; NMePhe(3-Me) = CN[C@@H](Cc1cccc(C)c1)C(=O)O; Bip = N[C@@H](Cc1ccc(-c2ccccc2)cc1)C(=O)O; Phe(3-OMe) = COc1cccc(C[C@H](N)C(=O)O)c1; Gly(N(CH2)3COOH) = O=C(O)CCCNCC(=O)O; NMeY = CN[C@@H](Cc1ccc(O)cc1)C(=O)O; NMeF = CN[C@@H](Cc1ccccc1)C(=O)O; 3Pal = N[C@@H](Cc1cccnc1)C(=O)O; 4Pal = N[C@@H](Cc1ccncc1)C(=O)O; Ahp(2) = CCCCC[C@H](N)C(=O)O; Carboxymethyl = O=C(O)C*; NMeA = CN[C@@H](C)C(=O)O; Sar = CNCC(=O)O
What was measured:
[1] = target: T1, GDF-11 (Homo sapiens, UniProt O95390); assay: HepG2 reporter gene assay, Evaluation Procedure (2): 2-concentrations assay, GDF-11 inhibition; type: cell-based; conditions: GDF-11 10 ng/mL; for inhibition at 0.03 µM: HepG2, peptide 30nM, read-out: GDF11 Inhibition 30nM; for inhibition at 0.1 µM: HepG2, peptide 100nM, read-out: GDF11 Inhibition 100nM
T1 construct: purchased R&D systems 1958-GD-G8/CF
T1 sequence (O95390 299-407): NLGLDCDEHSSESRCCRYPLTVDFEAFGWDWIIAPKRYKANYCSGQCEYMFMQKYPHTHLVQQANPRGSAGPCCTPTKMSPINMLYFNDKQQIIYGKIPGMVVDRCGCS
Summary of the method: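 HepG2 cells carrying the transfected pGL3(CAGA)12-luc reporter, a pGL3 vector with luciferase placed downstream of 12 CAGA repeats, were stimulated with GDF-11 at a final 10 ng/mL together with test peptide. Blank wells received no GDF-11 and no peptide. Plates were incubated 20 to 24 hours at 37°C with 5% CO2. Luminescence from One-Glo substrate was read to calculate percent inhibition.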

[2] = target: T2, Myostatin (Homo sapiens, UniProt O14793); assay: HepG2 reporter gene assay, Evaluation Procedure (2): 2-concentrations assay, myostatin inhibition; type: cell-based; conditions: Myostatin 10 ng/mL, HepG2; for inhibition at 0.03 µM: peptide 30nM, read-out: Myostatin Inhibition 30nM; for inhibition at 0.1 µM: peptide 100nM, read-out: Myostatin Inhibition 100nM
T2 construct: active myostatin (also called mature myostatin) is a homodimer consisting of two C-terminal growth factor domains; purchased R&D systems 788-G8/CF
T2 sequence (O14793 267-375): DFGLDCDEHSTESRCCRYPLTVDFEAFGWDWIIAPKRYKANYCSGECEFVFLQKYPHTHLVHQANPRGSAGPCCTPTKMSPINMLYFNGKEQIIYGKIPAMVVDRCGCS
Summary of the method: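 HepG2 cells (HB-8065, ATCC) carrying the transfected pGL3(CAGA)12-luc reporter plasmid were treated with myostatin (788-G8/CF, R&D systems) at a final concentration of 10 ng/mL plus peptide and incubated at 37°C, 5% CO2 for 20 to 24 hours. Luminescence was read after adding PBS mixed 1:1 with One-Glo substrate, and inhibition rate was calculated.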

Row | inhibition at 0.03 µM [1] [%] | inhibition at 0.1 µM [1] [%] | inhibition at 0.03 µM [2] [%] | inhibition at 0.1 µM [2] [%] | Structure (SMILES)
1 | 0 | 0 | 39 | 67 | CC[C@H](C)[C@@H]1NC(=O)[C@H](Cc2ccccc2)N(C)C(=O)[C@H](Cc2ccc(O)cc2)NC(=O)[C@H](Cc2c[nH]c3ncccc23)NC(=O)[C@H](CCC(=O)O)NC(=O)[C@H](C)NC(=O)CSC[C@H](C(=O)N[C@H](CO)C(=O)N[C@H](CO)C(=O)N[C@H](CO)C(=O)N[C@H](CCCCN)C(=O)O)NC(=O)[C@H](Cc2ccccc2)N(C)C(=O)[C@H](C)N(C)C(=O)[C@H](CC(C)C)NC(=O)[C@H](Cc2ccccc2)N(C)C(=O)[C@H](CCCNC(=N)N)NC(=O)[C@H](Cc2ccc(C(=O)O)cc2)NC(=O)[C@H](Cc2ccncc2)NC(=O)CN(C)C1=O [Myostatin_99_v40] ({CH2CO}-AE[Trp(7-aza)]Y[NMeF]I[Sar][4Pal][Phe(4-COOH)]R[NMeF]L[NMeA][NMeF][dC][dS][dS][dS][dK]-OH; thioether N-15)
2 | 7 | 5 | 25 | 51 | CC[C@H](C)[C@@H]1NC(=O)[C@H](Cc2ccccc2)N(C)C(=O)[C@H](Cc2ccc(Oc3ccccc3)cc2)NC(=O)[C@H](Cc2ccc(-c3ccccn3)cc2)NC(=O)[C@H](C)NC(=O)CN(CCCC(=O)O)C(=O)CSC[C@H](C(=O)O)NC(=O)[C@H](Cc2ccccc2)N(C)C(=O)[C@H](C)N(C)C(=O)[C@H](CC(C)C)NC(=O)[C@H](Cc2ccccc2)N(C)C(=O)[C@H](CCCNC(=N)N)NC(=O)[C@H](Cc2ccc(OCC(=O)O)cc2)NC(=O)[C@H](Cc2ccccc2)NC(=O)CN(C)C1=O [Myostatin_99_v60] ({CH2CO}-[Gly(N(CH2)3COOH)]A[X15][Tyr(Ph)][NMeF]I[Sar]FY(Carboxymethyl)R[NMeF]L[NMeA][NMeF][dC]-OH; thioether N-15)
3 | 0 | 0 | 60 | 81 | CC[C@H](C)[C@@H]1NC(=O)[C@H](Cc2ccccc2)N(C)C(=O)[C@H](Cc2ccc(O)cc2)NC(=O)[C@H](Cc2ccc(-c3ccccc3)cc2)NC(=O)[C@H](C)NC(=O)CN(CCCC(=O)O)C(=O)CSC[C@H](C(=O)O)NC(=O)[C@H](Cc2ccccc2)N(C)C(=O)[C@H](C)N(C)C(=O)[C@H](CC(C)C)NC(=O)[C@H](Cc2ccccc2)N(C)C(=O)[C@H](CCCNC(=N)N)NC(=O)[C@H](Cc2ccc(C(N)=O)cc2)NC(=O)[C@H](Cc2ccc(C(=O)O)cc2)NC(=O)[C@H](C)N(C)C1=O [Myostatin_99_v102] ({CH2CO}-[Gly(N(CH2)3COOH)]A[Bip]Y[NMeF]I[NMeA][Phe(4-COOH)][Phe(4-CONH2)]R[NMeF]L[NMeA][NMeF][dC]-OH; thioether N-15)
4 | 0 | 0 | 35 | 70 | CCc1cccc(C[C@H]2C(=O)N[C@@H](C(=O)O)CSCC(=O)N(CCCC(=O)O)CC(=O)N[C@@H](C)C(=O)N[C@@H](Cc3ccc(-c4ccccc4)cc3)C(=O)N[C@@H](Cc3ccc(O)cc3)C(=O)N(C)[C@@H](Cc3ccc(O)cc3)C(=O)N[C@@H]([C@@H](C)CC)C(=O)N(C)CC(=O)N[C@@H](Cc3cccc(OCC(=O)O)c3)C(=O)N[C@@H](Cc3ccc(C(=O)O)cc3)C(=O)N[C@@H](CCCNC(=N)N)C(=O)N(C)[C@@H](Cc3ccccc3)C(=O)N[C@@H](CC(C)C)C(=O)N(C)[C@@H](C)C(=O)N2C)c1 [Myostatin_99_v113] ({CH2CO}-[Gly(N(CH2)3COOH)]A[Bip]Y[NMeY]I[Sar][Phe(3-OCH2COOH)][Phe(4-COOH)]R[NMeF]L[NMeA][X14][dC]-OH; thioether N-15)
5 | 0 | 0 | 46 | 70 | CC[C@H](C)[C@@H]1NC(=O)[C@H](Cc2cccc(C)c2)N(C)C(=O)[C@H](Cc2ccc(O)cc2)NC(=O)[C@H](Cc2ccc(-c3ccccc3)cc2)NC(=O)[C@H](C)NC(=O)CN(CCCC(=O)O)C(=O)CSC[C@H](C(=O)O)NC(=O)[C@H](Cc2ccccc2)N(C)C(=O)[C@H](C)N(C)C(=O)[C@H](CC(C)C)NC(=O)[C@H](Cc2ccccc2)N(C)C(=O)[C@H](CCCNC(=N)N)NC(=O)[C@H](Cc2ccc(C(=O)O)cc2)NC(=O)[C@H](Cc2cccc(OCC(=O)O)c2)NC(=O)CN(C)C1=O [Myostatin_99_v119] ({CH2CO}-[Gly(N(CH2)3COOH)]A[Bip]Y[NMePhe(3-Me)]I[Sar][Phe(3-OCH2COOH)][Phe(4-COOH)]R[NMeF]L[NMeA][NMeF][dC]-OH; thioether N-15)
6 | 0 | 0 | 28 | 68 | CC[C@H](C)[C@@H]1NC(=O)[C@H](Cc2ccccc2)N(C)C(=O)[C@H](Cc2ccc(O)cc2)NC(=O)[C@H](Cc2c[nH]c3ccccc23)NC(=O)[C@H](C)NC(=O)CN(CCCC(=O)O)C(=O)CSC[C@H](C(=O)O)NC(=O)[C@H](Cc2ccccc2)N(C)C(=O)[C@H](C)N(C)C(=O)[C@H](CC(C)C)NC(=O)[C@H](Cc2ccccc2)N(C)C(=O)[C@H](CCCNC(=N)N)NC(=O)[C@H](Cc2ccc(OCC(=O)O)cc2)NC(=O)[C@H](Cc2cccc(OC)c2)NC(=O)[C@H](C)N(C)C1=O [Myostatin_99_v126] ({CH2CO}-[Gly(N(CH2)3COOH)]AWY[NMeF]I[NMeA][Phe(3-OMe)]Y(Carboxymethyl)R[NMeF]L[NMeA][NMeF][dC]-OH; thioether N-15)
7 | 0 | 0 | 31 | 57 | CC[C@H](C)[C@@H]1NC(=O)[C@H](Cc2ccccc2)N(C)C(=O)[C@H](Cc2ccc(O)cc2)NC(=O)[C@H](Cc2c[nH]c3ncccc23)NC(=O)[C@H](C)NC(=O)CN(CCCC(=O)O)C(=O)CSC[C@H](C(=O)O)NC(=O)[C@H](Cc2ccccc2)N(C)C(=O)[C@H](C)N(C)C(=O)[C@H](CC(C)C)NC(=O)[C@H](Cc2ccccc2)N(C)C(=O)[C@H](CCCNC(=N)N)NC(=O)[C@H](Cc2ccc(OCC(=O)O)cc2)NC(=O)[C@H](Cc2cccc(OC)c2)NC(=O)[C@H](C)N(C)C1=O [Myostatin_99_v127] ({CH2CO}-[Gly(N(CH2)3COOH)]A[Trp(7-aza)]Y[NMeF]I[NMeA][Phe(3-OMe)]Y(Carboxymethyl)R[NMeF]L[NMeA][NMeF][dC]-OH; thioether N-15)
8 | 6 | 1 | 37 | 69 | CCCCC[C@@H]1NC(=O)[C@H](Cc2ccccc2)N(C)C(=O)[C@H](CCCNC(=N)N)NC(=O)[C@H](Cc2cccnc2)NC(=O)[C@H](Cc2cccc(OCC(=O)O)c2)NC(=O)CN(C)C(=O)[C@H]([C@@H](C)CC)NC(=O)[C@H](Cc2ccccc2)N(C)C(=O)[C@H](Cc2ccc(O)cc2)NC(=O)[C@H](Cc2c[nH]c3ccccc23)NC(=O)[C@H](C)NC(=O)[C@H](C)NC(=O)CSC[C@H](C(=O)O)NC(=O)[C@H](Cc2ccccc2)N(C)C(=O)[C@H](C)N(C)C1=O [Myostatin_99_v205] ({CH2CO}-AAWY[NMeF]I[Sar][Phe(3-OCH2COOH)][3Pal]R[NMeF][Ahp(2)][NMeA][NMeF][dC]-OH; thioether N-15)

Source: patent EP4786487A1, “PEPTIDE” (Peptidream Inc, priority 2023, dated 2025)
